Article PMC4016240, “Flavonoids with α-glucosidase inhibitory activities and their contents in the leaves of Morus atropurpurea” (Chinese Medicine, 2013)

Target: T1, yeast α-glucosidase (Saccharomyces cerevisiae, UniProt P53341)
T1 construct: purchased Sigma-Aldrich
Test: microplate-based α-glucosidase inhibition assay (pNPG substrate)
Format: biochemical, Saccharomyces cerevisias
Details: pH 6.8, 37°C, 30 min, means ± SD, n = 3
Source text: Acetonitrile (HPLC grade) and acetic acid (HPLC grade) were purchased from Merck (Darmstadt, Germany), and methanol (AR grade) was purchased from Kaitong (Tianjin, China). Sodium carbonate was purchased from BDH Laboratory Supplies (Poole, Dorset, UK). α-Glucosidase type 1 ([…] from Saccharomyces cerevisias) and 4-nitrophenyl α-D-glucopyranoside (pNPG) were purchased from Sigma-Aldrich (St. Louis, MO, USA). Ultra-pure water was purified using a Millipore Milli Q-Plus system (Billerica, MA, USA). […] Silica gel (200–300 mesh) was purchased from Qingdao Haiyang Chemical Co. Ltd. (Qingdao, China). Macroporous absorption resin (D101) was purchased from Haiguang Chemical Industrial Co. (Tianjin, China). Sephadex LH-20 was purchased from GE Healthcare Bio-Sciences AB (Uppsala, Sweden), and the Millex® nylon membrane syringe filter was purchased from Millipore (Billerica, MA, USA).
The yeast α-glucosidase inhibitory activities of the four flavonoids were determined by a microplate-based method with a slight modification. […] The 4-nitrophenol absorption was measured at 405 nm. […] The inhibitory activity was calculated using the following formula: […]
where AS, ASB, AC, and ACB are the absorbances of sample, sample blank, control, and control blank, respectively.

T1 sequence (P53341 whole entry): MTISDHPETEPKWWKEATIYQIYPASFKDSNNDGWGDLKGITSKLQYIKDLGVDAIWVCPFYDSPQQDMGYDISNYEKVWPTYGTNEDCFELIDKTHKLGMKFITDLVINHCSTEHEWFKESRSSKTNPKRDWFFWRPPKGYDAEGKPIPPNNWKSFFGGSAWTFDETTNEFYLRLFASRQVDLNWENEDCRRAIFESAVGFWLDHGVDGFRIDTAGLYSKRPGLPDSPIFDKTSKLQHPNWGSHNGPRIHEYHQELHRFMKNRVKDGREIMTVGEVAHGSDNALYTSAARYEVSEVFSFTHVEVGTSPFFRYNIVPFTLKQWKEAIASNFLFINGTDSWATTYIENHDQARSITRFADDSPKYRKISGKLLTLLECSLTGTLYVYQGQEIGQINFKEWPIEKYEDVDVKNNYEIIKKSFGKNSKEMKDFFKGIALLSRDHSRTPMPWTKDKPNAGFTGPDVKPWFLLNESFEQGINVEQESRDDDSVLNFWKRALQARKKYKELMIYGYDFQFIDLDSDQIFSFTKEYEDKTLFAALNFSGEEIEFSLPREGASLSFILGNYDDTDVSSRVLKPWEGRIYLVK

SMILES: O=c1c(O[C@@H]2O[C@H](CO)[C@@H](O)[C@H](O)[C@H]2O)c(-c2ccc(O)c(O)c2)oc2cc(O)cc(O)c12 [flavonoid 2, isoquercetin]
- IC50: 117 µM

SMILES: C[C@@H]1O[C@@H](OC[C@H]2O[C@@H](Oc3c(-c4ccc(O)c(O)c4)oc4cc(O)cc(O)c4c3=O)[C@H](O)[C@@H](O)[C@@H]2O)[C@H](O)[C@H](O)[C@H]1O [flavonoid 1, rutin]
- IC50: 13.2 µM
